No end group written: not given here.
Columns and labels:
Calu-3 cells = test: MTS cell viability assay, Calu-3; type: cell-based, human; details: Calu-3, 72 h exposure, concentrations up to 1 mM
Experimental: (§1) BEAS 2B (cat. no.: ATCC® CRL-9609™) and Calu-3 (cat. no.: ATCC HTB-55™) cell lines were purchased from the American Type Culture Collection (ATCC, United States). BEAS 2B cells were maintained in Bronchial Epithelial Cell Growth Medium (BEGM) containing Bronchial Epithelial Basal Medium (BEBM cat. no.: CC-3171) supplemented with growth factors (SingleQuotsTM Supplement Pack cat. no.: CC-4175), both from Lonza (Switzerland). […]
(§2) After 72 h of incubation at 37°C, the combined solution of MTS (Promega, United States, cat. no.: G1112) and an electron coupling reagent, phenazine methosulfate (PMS, Sigma-Aldrich, Merck, Germany, cat. no.: P9625) was added to the cell culture media, to a final concentration of 333 μg/ml MTS and 25 μM PMS. Cells were then incubated for 3 h at 37°C in a humidified, 5% CO2 atmosphere, and the absorbance at 490 nm wavelength was measured using a spectrophotometer (Synergy HT Microplate Reader, BioTek, United States). The absorbance values recorded for cells exposed to peptide were compared to values measured for untreated control cells, regarded as 100% cell viability.
(§3) The amount of formazan product measured spectrophotometrically is directly proportional to the number of viable cells ([Berridge et al., 2005]).

BEAS 2B cells = test: MTS cell viability assay, BEAS 2B; type: cell-based, human; details: 72 h exposure, concentrations up to 1 mM
Experimental: as §1, §2, §3

[1] = target: RBD domain of the SARS-CoV-2 S protein (Severe acute respiratory syndrome coronavirus 2, UniProt P0DTC2); test: biochemical; type: binding; details: KD Tmeasur. 25°C
[2] = system: SARS-CoV-2 S protein - hACE2 interaction; details: ref Odolczyk et al., 2021; read-out: IC50 inhibition of virus-host protein-protein interaction; cited from earlier work

**Q.** Which “Cell viability (MTS)” value (Calu-3 cells) does the source give for `NC(=O)C[C@H](NC(=O)CNC(=O)[C@H](Cc1ccc(O)cc1)NC(=O)[C@@H](N)CC(=O)O)C(=O)N[C@@H](Cc1c[nH]cn1)C(=O)N[C@@H](CCC(=O)O)C(=O)O` [J3, DYGNHE] here?
**A.** Its value is “not affected”.

**Q.** What about the “Cell viability (MTS)” value (BEAS 2B cells) of the same compound?
**A.** The value was “not affected”.

**Q.** What about the Kd [1] of the same compound?
**A.** Its Kd is 0.05 ± 0.01 µM.

**Q.** Which IC50 [2] does the source give for `NCCCC[C@H](NC(=O)[C@@H](N)CC(=O)O)C(=O)NCC(=O)N[C@@H](CC(N)=O)C(=O)N[C@@H](Cc1c[nH]cn1)C(=O)N[C@@H](CCC(=O)O)C(=O)O` [pep1d, DKGNHE] here?
**A.** Its IC50 is 3300 µM.

**Q.** For LYGNYE [J3.5, LYGNYE], which Kd [1] is on record?
**A.** Its Kd is over 1 µM.

**Q.** Which Kd [1] does the source give for MYGNYE [J3.4, MYGNYE] here?
**A.** The Kd was over 10 µM.

— publication PMC9555309, “Improvement of native structure-based peptides as efficient inhibitors of protein-protein interactions of SARS-CoV-2 spike protein and human ACE2” (Frontiers in Molecular Biosciences, 2022)
